Measurements reported in paper PMC7415810, “A novel nucleolin-binding peptide for Cancer Theranostics” (Theranostics, 2020).

System: MDA-MB-231-luc xenograft
Experiment: Tumorigenesis experiment, MDA-MB-231-luc breast cancer xenograft
Details: 16.68 mg/kg (molar equivalent to 2 mg/kg of PTX), tail vein twice a week, n = 5
Procedure: All animal experiments were performed in accordance with IACUC guidelines (GIST-2019-040). For tumorigenesis experiments, anesthetized 6-week-old female NOD-scid Il2rg^-^/^- mice (NPG^TM, VITALSTAR) were inoculated in the mammary fat pad with 1 × 10^6 MDA-MB-231-luc cells in a 100 μl volume (n = 5 for each group). After tumor cell inoculation, when the tumor volume reached approximately 100 mm^3, the mice were randomly divided into the following five groups: (i) control, (ii) low-dose paclitaxel (2 mg/kg), (iii) high-dose paclitaxel (10 mg/kg), (iv) AGM-330 (16.68 mg/kg, molar equivalent to 2 mg/kg of PTX), and (v) AGM-330-PTX (19.05 mg/kg, molar equivalent to 2 mg/kg of PTX). The tumor size was measured twice a week, and the tumor volume was calculated with the following formula: volume (mm^3) = [length (mm)] × [width (mm)]^2 × 0.5. For the bioluminescent imaging experiment, D-luciferin (150 mg/kg; PerkinElmer) was intraperitoneally injected into each mouse, and an IVIS 100 imaging system (Xenogen, Corporation, Alameda, CA) was used for bioluminescent monitoring. Mice were anesthetized with vaporized isofurane (BK Pharm, Ilsan, Korea) and placed in an imaging chamber. After 10 min, each animal was imaged with an exposure time of 1 min. All bioluminescent image data were obtained using Living Image software (version 4.5.2, PerkinElmer). Photons detected from tumors were converted to average radiance values (photon/sec/cm^2/sr), which are quantitative data obtained from a region of […] (ROI) and include the photons emitted by bioluminescent cells from an assigned rectangular area over the whole body of each mouse.
A, Cell proliferation inhibition by AGM-330-PTX treatment was determined for 48 h by the WST assay in multiple breast and colorectal cancer cells and in normal cells. B, Schematic representation of the experimental protocol as described in the materials and methods section. Anesthetized 6‑week-old […] NPG mice were inoculated with a 1:1 mix of Matrigel and 1 × 10^6 MDA-MB-231-luc cells into the mammary fat pad. When the volume of primary tumors reached approximately 100 mm^3, tumor-bearing mice were treated with vehicle (PBS), PTX (2 or 10 mg/kg), AGM-330 (16.68 mg/kg, molar equivalent to 2 mg/kg of PTX), or AGM-330-PTX (19.05 mg/kg, molar equivalent to 2 mg/kg of PTX; n = 5/group). C-E, The therapeutic effect of AGM-330-PTX was evaluated in breast cancer xenograft models. C, Primary tumor volume was measured twice a week until the day of sacrifice. The primary tumor volume was calculated by the formula volume (mm^3) = (length (mm)) × (width (mm))^2 × 0.5. D, On the day of sacrifice, all primary tumors were isolated, and (E) the primary tumor weights were evaluated. F-I, Immunohistochemistry (IHC) sections of representative tumors with Ki-67 (F,H) and TUNEL (G,I) staining. Nuclei were stained with DAPI (blue). Scale bar, 50 µm. Bar graphs represent the mean ± SD, and statistical analyses were performed by one-way ANOVA with Dunnett's multiple comparison. *, **, and *** indicate P < 0.05, P < 0.01, and P < 0.001, respectively.
Following in vitro proliferation analysis on cancer lines, we investigated whether AGM-330-PTX could be a potential therapeutic agent in vivo. We inoculated MDA-MB-231-luc cells into the mammary fat pad of NPG mice. After the […] tumors grew to 100 mm^3, comparative efficacy studies were performed by dividing the animals into five groups (n = 5/group) treated with vehicle (PBS), PTX (2 or 10 mg/kg, respectively), AGM-330 (16.68 mg/kg, molar equivalent to 2 mg/kg of PTX), or AGM-330-PTX (19.05 mg/kg, molar equivalent to 2 mg/kg of PTX) twice a week by tail vein injection (Figure 5B). Tumor growth was monitored by measuring volumes twice a week with a caliber rule over the course of 3 weeks.
Figure S11. A-E, NPG TM mice bearing MDA-MB-231-luc tumors were treated twice a week for 21 days with […]

CSCC[C@H](NC(=O)[C@H](C)NC(=O)CNC(=O)[C@H](Cc1c[nH]cn1)NC(=O)[C@@H](N)CCCNC(=N)N)C(=O)N[C@H](C(=O)N[C@@H](Cc1ccc(O)cc1)C(=O)N[C@@H](CC(C)C)C(=O)N[C@@H](CCCCN)C(=O)NCCOCCOCCOCCOCCOCCOCCOCCOCCOCCOCCOCCOCCC(=O)NCCCC[C@H](NC(=O)CCOCCOCCOCCOCCOCCOCCOCCOCCOCCOCCOCCOCCNC(=O)[C@H](CCCCN)NC(=O)[C@H](CC(C)C)NC(=O)[C@H](Cc1ccc(O)cc1)NC(=O)[C@@H](NC(=O)[C@H](CCSC)NC(=O)[C@H](C)NC(=O)CNC(=O)[C@H](Cc1c[nH]cn1)NC(=O)[C@@H](N)CCCNC(=N)N)C(C)C)C(=O)NCCCC[C@H](NC(=O)[C@H](CCCCNC(=O)CCOCCOCCOCCOCCOCCOCCOCCOCCOCCOCCOCCOCCNC(=O)[C@H](CCCCN)NC(=O)[C@H](CC(C)C)NC(=O)[C@H](Cc1ccc(O)cc1)NC(=O)[C@@H](NC(=O)[C@H](CCSC)NC(=O)[C@H](C)NC(=O)CNC(=O)[C@H](Cc1c[nH]cn1)NC(=O)[C@@H](N)CCCNC(=N)N)C(C)C)NC(=O)CCOCCOCCOCCOCCOCCOCCOCCOCCOCCOCCOCCOCCNC(=O)[C@H](CCCCN)NC(=O)[C@H](CC(C)C)NC(=O)[C@H](Cc1ccc(O)cc1)NC(=O)[C@@H](NC(=O)[C@H](CCSC)NC(=O)[C@H](C)NC(=O)CNC(=O)[C@H](Cc1c[nH]cn1)NC(=O)[C@@H](N)CCCNC(=N)N)C(C)C)C(=O)N[C@@H](CS)C(=O)O)C(C)C [AGM-330]
average tumor volume versus vehicle (PBS)-treated mice: no significant difference
